Data on seven compounds can be found in ChEMBL document CHEMBL5053497, “Azaphilones from an Endophytic Penicillium sp. Prevent Neuronal Cell Death via Inhibition of MAPKs and Reduction of Bax/Bcl-2 Ratio” (2021).

The subject of experiment [1] is HT-22. Kind of experiment: Neuroprotective activity against glutamate-induced cytotoxicity in mouse HT-22 cells assessed as cell viability at 50 to 100 uM incubated for 24 hrs in presence of glutamate by EZ-CyTox reagent based analysis. The experiment is classed as functional. The conditions noted are these: dose 50-100 µM.
For experiment [2], the system named is HT-22. Nature of the experiment: Neuroprotective activity in mouse HT-22 cells assessed as inhibition of glutamate-induced nuclear condensation at 25 uM incubated for 12 hrs in presence of glutamate by Hoechst 33342 staining based fluorescence microscopic analysis. The experiment is classed as functional, cell-based.
Experiment [3] relates to HT-22. Nature of the experiment: Neuroprotective activity in mouse HT-22 cells assessed as reduction in glutamate-induced intracellular Ca2+ level at 25 uM incubated for 8 hrs in presence of glutamate by Fluo-4AM staining based microscopic imaging analysis. The experiment is classed as functional, cell-based.
Experiment [4] has as its system HT-22. Nature of the experiment: Neuroprotective activity against glutamate-induced cytotoxicity in mouse HT-22 cells assessed as cell viability at 25 to 50 uM incubated for 24 hrs in presence of glutamate by EZ-CyTox reagent based analysis (reference value: 50 %). The experiment is classed as functional. The note with it: dose 25-50 µM.
Experiment [5] concerns HT-22. Nature of the experiment: Neuroprotective activity against glutamate-induced cytotoxicity in mouse HT-22 cells assessed as cell viability at 25 uM incubated for 24 hrs in presence of glutamate by EZ-CyTox reagent based analysis relative to control. Type of experiment: functional. The conditions noted are these: read-out: Activity.
Experiment [6] deals with HT-22. Kind of experiment: Neuroprotective activity in mouse HT-22 cells assessed as reduction in glutamate-induced intracellular Ca2+ level at 50 uM incubated for 8 hrs in presence of glutamate by Fluo-4AM staining based microscopic imaging analysis. The experiment is classed as functional, cell-based.
Experiment [7] relates to HT-22. Nature of the experiment: Neuroprotective activity in mouse HT-22 cells assessed as reduction in glutamate-induced intracellular Ca2+ level at 10 to 20 uM incubated for 8 hrs in presence of glutamate by Fluo-4AM staining based microscopic imaging analysis. The experiment is classed as functional, cell-based. The conditions noted are these: dose 10-20 µM.
The test system of experiment [8] is HT-22. Kind of experiment: Inhibition of glutamate-induced MAPK activation in mouse HT-22 cells assessed as reduction in p38 phosphorylation at 10 to 20 uM incubated for 11 hrs in presence of glutamate by Western blot analysis. The experiment is classed as cell-based. The note with it: dose 10-20 µM. In general terms: A western blot detects proteins with antibodies after separation by electrophoresis.

The subject of experiment [9] is HT-22. Nature of the experiment: Inhibition of glutamate-induced MAPK activation in mouse HT-22 cells assessed as reduction in JNK phosphorylation at 10 to 20 uM incubated for 11 hrs in presence of glutamate by Western blot analysis. The experiment is classed as cell-based. The note with it: dose 10-20 µM.
The test system of experiment [10] is HT-22. Nature of the experiment: Inhibition of glutamate-induced MAPK activation in mouse HT-22 cells assessed as reduction in ERK phosphorylation at 10 to 20 uM incubated for 11 hrs in presence of glutamate by Western blot analysis. The note with it: dose 10-20 µM. Type of experiment: cell-based.
The test system of experiment [11] is HT-22. Kind of experiment: Neuroprotective activity in mouse HT-22 cells assessed as inhibition of glutamate-induced nuclear condensation at 10 to 20 uM incubated for 12 hrs in presence of glutamate by Hoechst 33342 staining based fluorescence microscopic analysis. The experiment is classed as functional, cell-based. The conditions noted are these: dose 10-20 µM.

In experiment [12] the test system is HT-22. Nature of the experiment: Neuroprotective activity against glutamate-induced cytotoxicity in mouse HT-22 cells assessed as cell viability at 12.5 uM incubated for 24 hrs in presence of glutamate by EZ-CyTox reagent based analysis. Type of experiment: functional.
Experiment [13] has as its system HT-22. Kind of experiment: Neuroprotective activity against glutamate-induced cell death in mouse HT-22 cells assessed as reduction in Bax/Bcl2 ratio at 10 to 20 uM incubated for 11 hrs in presence of glutamate by Western blot analysis. Type of experiment: functional, cell-based. The conditions noted are these: dose 10-20 µM.

Structures are written as SMILES. The source made the active and inactive calls. The calls are words filed in the database; no cut-off is given here.

Consider `CC[C@H](C)/C=C(C)/C=C/C1=CC2=C(Cl)C(=O)[C@](C)(O)[C@H](O)C2=CO1`, for which the result in experiment [1] was Active.
With `CC(/C=C/C1=CC2=C(Cl)C(=O)[C@](C)(O)[C@H](O)[C@@H]2CO1)=C\[C@@H](C)CCO`, the inhibition result in [2] was “inactive”. Besides, the result in [3] was inactive. The Activity in experiment [4] was determined as 80%.
With `CC[C@@H](/C=C(C)/C=C/C1=CC2=CC(=O)[C@](C)(O)[C@H](O)[C@H]2CO1)CO`, the inhibition entry in [2] is “inactive”. The result in [3] was inactive. For the same compound, the Activity in experiment [4] worked out at 80%.
Consider `CC[C@H](C)/C=C(C)/C=C/C1=CC2=C(Cl)C(=O)[C@](C)(OC)C(=O)C2=CN1CCO`, for which the inhibition entry in experiment [2] is “Active”. In addition, the viability at 25 µM in experiment [5] came to 100%. Besides, the result in experiment [6] was Active. For the same compound, the Activity in experiment [4] came out at 80%.
For `CC[C@H](C)/C=C(C)/C=C/C1=CC2=CC(=O)[C@](C)(O)[C@H](O)[C@H]2CO1`, in experiment [2], the inhibition result was “inactive”. Further, the outcome in experiment [3] was inactive. The outcome in experiment [1] was Active.
Regarding `CC[C@H](C)/C=C(C)/C=C/C1=CC2=C(Cl)C(=O)[C@](C)(OC(C)=O)C(=O)C2=CN1CCO`, the inhibition entry in experiment [2] was “Active”. For the same compound, in [5], the viability at 25 µM worked out at 100%. In addition, the result in experiment [7] was Active. The Activity in [4] is listed as 80%.
In the case of `CC[C@H](C)/C=C(C)/C=C/C1=CC2=C(Cl)C(=O)[C@](C)(OC(C)=O)C(=O)C2=CN1` [SCLEROTIORAMINE], the inhibition result in [8], in [9], in experiment [10] and in experiment [11] was “Active” throughout. Also, the viability at 25 µM in [5] worked out at 100%. Moreover, the result in experiment [7], in experiment [12] and in experiment [13] was Active.
